This note sets out measurements from patent US9907637B2, “Modular bioresorbable or biomedical, biologically active supramolecular materials” (SupraPolix B.V., priority 2005, dated 2018).

A short description of series [1]: Extraction of peptide out of polymer films with water, LC-MS. In kind it is physicochemical. The following applies: for peptide dissolved: 80 minutes at 37° C. in a total volume of 5 mL water, 4 mole % peptide; for extraction: water 37° C., 4 mole % peptide in film of polymer of example 14. How it is done:
The extraction of the peptide of example 18 and the peptide GRGDS without a UPy-unit out of films of example 29a was investigated with LC-MS measurements. The amount of peptide that was mixed in the polymeric materials is in both cases 4 mole %. Calibration was performed by quantification of one fragment of the parent ion (MS^2) of the peptides using different concentrations of the peptides. The surface area of the corresponding peak (in the total ion count) was calculated with the ICIS algorithm. The extraction experiments were performed as follows: the film was incubated at 37° C. for 5 minutes in 1 mL water, then the water was removed and the concentration of peptide was measured with the described LC-MS procedure (time-point: 5 minutes); another 1 mL water was added to the film which was subsequently incubated again for 5 minutes at 37° C. followed by removal of the water which was analysed with the LC-MS method (time-point: 10 minutes); another 1 mL water was added to the film and the sample was incubated for 10 minutes at 37° C. followed by removal of the water which was analysed with the LC-MS method (time-point: 20 minutes); incubation at 37° C. in another 1 mL water for 20 minutes, followed by removal of the water which was analysed with the LC-MS method (time-point: 40 minutes); and incubation at 37° C. in another 1 mL water for 40 minutes, followed by removal of the water which was analysed with the LC-MS method (time-point: 80 minutes).

Experiment in series [2]: as above
In kind it is physicochemical. The following applies: 2 hours at 37° C. in 1 mL water, 4 mole % peptide.

Take UPy-GRGDS [Example 18]: the peptide dissolved in series [1] came out at 76%; in series [2], 64%. The values for the extraction in series [1] (time 5 min), in series [1] (time 10 min) and in series [1] (time 20 min) were 39%, 60% and 76%, respectively.
On to GRGDS, for which the peptide dissolved in series [1] is reported as 105%; in series [2], 101%. Moreover, the results for the extraction in series [1] (time 5 min), in series [1] (time 10 min) and in series [1] (time 20 min) were 91%, 97% and 100%, respectively. In series [1] (within 5 minutes, water at 37° C.), the “dissolution of peptide from film” value is “almost all of the peptide is dissolved”.
